One assay relates to Kv1.x channel. The settings on record: cited from earlier work.
Assay [1] has as its target T1, KCNQ1 channel (Homo sapiens, UniProt P15382+P51787). Kind of assay: cell-based. The settings on record: HEK293, read-out: Inhibition of KCNQ1 channel current.
Assay [2] addresses T1, KCNQ1 channel.

Positions of bridges follow the written chain, without caps; N, C: chain ends. Residues, ends and D or L forms follow the SMILES beside them.

T1 sequence (P51787 whole entry, looked up): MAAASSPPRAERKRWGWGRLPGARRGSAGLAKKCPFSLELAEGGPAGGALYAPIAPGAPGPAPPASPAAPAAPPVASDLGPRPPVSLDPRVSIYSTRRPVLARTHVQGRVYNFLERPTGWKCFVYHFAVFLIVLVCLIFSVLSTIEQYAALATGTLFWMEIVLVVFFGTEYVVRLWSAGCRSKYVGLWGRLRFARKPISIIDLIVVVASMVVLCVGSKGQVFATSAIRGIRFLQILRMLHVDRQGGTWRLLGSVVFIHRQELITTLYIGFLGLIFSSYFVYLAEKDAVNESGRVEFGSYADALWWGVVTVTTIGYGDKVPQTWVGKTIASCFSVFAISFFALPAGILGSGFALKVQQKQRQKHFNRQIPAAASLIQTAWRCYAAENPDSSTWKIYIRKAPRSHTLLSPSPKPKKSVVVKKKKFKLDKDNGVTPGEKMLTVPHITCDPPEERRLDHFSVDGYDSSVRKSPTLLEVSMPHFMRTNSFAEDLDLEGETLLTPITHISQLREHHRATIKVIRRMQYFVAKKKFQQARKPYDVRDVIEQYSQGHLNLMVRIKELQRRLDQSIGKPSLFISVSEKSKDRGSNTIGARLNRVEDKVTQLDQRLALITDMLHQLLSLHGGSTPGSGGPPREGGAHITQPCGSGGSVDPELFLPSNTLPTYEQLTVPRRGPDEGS

As usually defined, the inhibition is the share of the control response that was lost under treatment. In the case of `CC[C@H](C)[C@@H]1NC(=O)[C@H](C(C)C)NC(=O)[C@@H]2CSSC[C@@H]3NC(=O)[C@H](CCCCN)NC(=O)[C@H](CCC(N)=O)NC(=O)[C@@H]4CCCN4C(=O)CNC(=O)[C@H](CC(=O)O)NC(=O)[C@H](CSSC[C@H](NC(=O)[C@H](CO)NC(=O)[C@H](CCC(=O)O)NC(=O)[C@H](CCCCN)NC(=O)[C@@H]4CCCN4C(=O)[C@H](CCC(=O)O)NC(=O)[C@H](CCC(=O)O)NC(=O)[C@@H](N)CC(=O)O)C(=O)N[C@@H](CO)C(=O)N[C@@H](CC(=O)O)C(=O)N[C@@H](CCC(=O)O)C(=O)N[C@@H](CCSC)C(=O)N2)NC(=O)[C@H](C(C)C)NC(=O)CNC(=O)[C@H]([C@@H](C)O)NC(=O)[C@H](CO)NC(=O)[C@H](Cc2ccc(O)cc2)NC(=O)[C@H](CCC(=O)O)NC(=O)[C@H](CCC(=O)O)NC(=O)CNC(=O)[C@H](CCCCN)NC(=O)[C@H](CSSC[C@@H](C(=O)N[C@@H](CO)C(=O)N[C@@H](CC(=O)O)C(=O)O)NC(=O)[C@H](CCCCN)NC3=O)NC(=O)[C@H](Cc2ccc(O)cc2)NC1=O` [PbTx1, reference compound] (H-DEEPKESCSDEMCVIYCKGEEYSTGVCDGPQKCKCSD-OH; disulfide 8-27, 13-33, 17-35), the “Block of Kv1.x channel (in words)” value with Kv1.x channel was “low activity (micromolar range)”. The inhibition at 10 µM at KCNQ1 channel [1] turned out to be 21.4%. Further, at KCNQ1 channel [2], the “Effect on KCNQ1 channel (in words)” value is recorded as “only weak inhibitors”.

Source of the values: publication PMC3325286, “Structural and Functional Diversity of Acidic Scorpion Potassium Channel Toxins” (PLoS ONE, 2012).
